# From patent US20220041559A1, “BENZO-AND PYRIDO-PYRAZOLES AS PROTEIN KINASE INHIBITORS” (ROTTAPHARM BIOTECH S.R.L., priority 2019, published 2022)
# Molecular target: T1, FYN (Homo sapiens, UniProt P06241)
# T1 construct: purchased CarnaBioscience
# Assay: Z'-LYTE in vitro kinase assay, FYN kinase inhibition
# Type: biochemical
# Conditions: Table 17
# Experimental: Assays to determine the kinase inhibitory activity of compounds were performed using an automatic liquid handling device (Microlab STAR Hamilton) and Z′-LYTE™ Kinase Assay Platform (Invitrogen), a Fluorescence Resonance Energy Transfer (FRET)-based assay platform compatible with high-throughput screening (HTS) applications. The assay employs a fluorescence-based, coupled-enzyme format and utilizes the differential sensitivity of phosphorylated and non-phosphorylated peptides to proteolytic cleavage.
# Test compounds were evaluated towards active FYN (CarnaBioscience). The enzyme was incubated in a 384 low-volume microplate with a synthetic peptide-substrate, ATP and different inhibitor concentrations, ranging from 10^−10 M up to 10^−5 M final concentration. Samples representing the 0% inhibition (or total enzymatic activity) were in the presence of compound diluent (1% DMSO final) in Reaction Buffer (50 mM Hepes, 10 mM MgCl2, 1 mM EGTA, 0.01% Brij-35, pH 7.5).
# A near-Km ATP concentrations for the kinase and an optimal enzyme concentration that phosphorylates 20-40% of the Z′-LYTE™ Tyr 2 Peptide in a one-hour incubation, were selected. All reagents were diluted in reaction buffer and the kinase reaction was carried out in a total volume of 10 μl, for 60 minutes at 25° C. The 0% Phosphorylation (i.e. no ATP) and 100% Phosphorylation (i.e. synthetically phosphorylated peptide supplied) Assay Controls, included in each plate, allowed to calculate the percent phosphorylation achieved in the specific reaction well. The 0% Inhibition and 0% Phosphorylation (i.e. 100% Inhibition) Controls define the dynamic range in the screen. At the end of incubation, a secondary reaction (the Development Reaction) started by adding 5 μl of Development Reagent, containing a site-specific protease that recognizes and cleaves non-phosphorylated peptides, and was interrupted after 60 minutes with 5 μl/sample of Stop Reagent. Measurement of the Coumarin (Ex. 400 nm, Em. 460 nm) and Fluorescein (Ex. 400 nm, Em. 535 nm) emission signals were performed by a fluorescence plate reader (Envision, PerkinElmer).
# Results are expressed as percentage of inhibition and the IC50 values were calculated by non-linear curve fitting using GraphPad™ Prism software.
# T1 sequence (P06241 whole entry): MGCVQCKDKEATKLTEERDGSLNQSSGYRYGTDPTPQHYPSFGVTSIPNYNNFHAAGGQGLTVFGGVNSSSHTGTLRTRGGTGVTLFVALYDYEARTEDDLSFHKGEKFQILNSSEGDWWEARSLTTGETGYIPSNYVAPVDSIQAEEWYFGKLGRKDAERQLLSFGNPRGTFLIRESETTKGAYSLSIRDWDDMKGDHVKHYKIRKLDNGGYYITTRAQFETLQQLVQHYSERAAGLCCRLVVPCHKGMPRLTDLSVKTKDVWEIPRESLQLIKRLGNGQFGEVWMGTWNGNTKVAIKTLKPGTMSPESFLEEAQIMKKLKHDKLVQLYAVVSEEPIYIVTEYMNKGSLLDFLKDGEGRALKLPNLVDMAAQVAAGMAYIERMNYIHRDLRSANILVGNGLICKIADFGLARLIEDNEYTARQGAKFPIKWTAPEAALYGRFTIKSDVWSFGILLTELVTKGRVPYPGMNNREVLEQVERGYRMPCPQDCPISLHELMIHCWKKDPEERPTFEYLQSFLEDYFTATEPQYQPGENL
row,SMILES,"FYN kinase inhibition, result in words"
1,"Cc1cccc(F)c1Nc1ccc2c(NC(=O)c3ccc(C4CCN(C)CC4)cc3)n[nH]c2c1 [Compound 11, N-(6-((2-fluoro-6-methylphenyl)amino)-1H-indazol-3-yl)-4-(1-methylpiperidin-4-yl)benzamide]",more active
2,"CN1CCC(c2ccc(C(=O)Nc3n[nH]c4cc(Nc5c(F)ccc6c5OCO6)ccc34)cc2)CC1 [Compound 15, N-(6-((5-fluorobenzo[d][1,3]dioxol-4-yl)amino)-1H-indazol-3-yl)-4-(1-methylpiperidin-4-yl)benzamide]",more active

# Same assay, conditions: near-Km ATP, 60 minutes at 25° C.
row,SMILES,IC50
1,"CN1CC[C@@H](c2ccc(C(=O)Nc3n[nH]c4cc(Nc5ccccc5F)ccc34)cc2)[C@@H](F)C1 (single isomer, unassigned) [Compound 3]",0.307 µM
2,"CN1CC[C@@H](c2ccc(C(=O)Nc3n[nH]c4cc(Nc5ccccc5F)ccc34)cc2)[C@@H](F)C1 (single isomer, unassigned) [Compound 4]",0.203 µM
3,"CN1CCCC(Oc2ccc(C(=O)Nc3n[nH]c4cc(Nc5ccccc5F)ccc34)cc2)C1 (single isomer, unassigned) [Compound 40]",0.548 µM
4,"CN1CCCC(Oc2ccc(C(=O)Nc3n[nH]c4cc(Nc5ccccc5F)ccc34)cc2)C1 (single isomer, unassigned) [Compound 41]",0.374 µM
5,"CCc1cccc(F)c1Nc1ccc2c(NC(=O)c3ccc(C4CCN(C)CC4)cc3)n[nH]c2c1 [Compound 2, N-(6-((2-ethyl-6-fluorophenyl)amino)-1H-indazol-3-yl)-4-(1-methylpiperidin-4-yl)benzamide]",0.315 µM
6,"O=C(Nc1n[nH]c2cc(Nc3ccccc3F)ccc12)c1ccc(C2CCN(C3COC3)CC2)cc1 [Compound 7, N-(6-((2-fluorophenyl)amino)-1H-indazol-3-yl)-4-(1-(oxetan-3-yl)piperidin-4-yl)benzamide]",0.468 µM
7,"CN1CCC(c2ccc(C(=O)Nc3n[nH]c4cc(Nc5ccc(F)cc5Cl)ccc34)cc2)CC1 [Compound 9, N-(6-((2-chloro-4-fluorophenyl)amino)-1H-indazol-3-yl)-4-(1-methylpiperidin-4-yl)benzamide]",0.388 µM
8,"CN1CCC(c2ccc(C(=O)Nc3n[nH]c4cc(Nc5ccccc5C(F)(F)F)ccc34)cc2)CC1 [Compound 10, 4-(1-methylpiperidin-4-yl)-N-(6-((2-(trifluoromethyl)phenyl)amino)-1H-indazol-3-yl)benzamide]",0.65 µM
9,"Cc1cccc(F)c1Nc1ccc2c(NC(=O)c3ccc(C4CCN(C)CC4)cc3)n[nH]c2c1 [Compound 11, N-(6-((2-fluoro-6-methylphenyl)amino)-1H-indazol-3-yl)-4-(1-methylpiperidin-4-yl)benzamide]",0.047 µM
10,"CN1CCC(c2ccc(C(=O)Nc3n[nH]c4cc(Nc5ccc(Cl)cc5F)ccc34)cc2)CC1 [Compound 12, N-(6-((4-chloro-2-fluorophenyl)amino)-1H-indazol-3-yl)-4-(1-methylpiperidin-4-yl)benzamide]",0.22 µM
11,"Cc1cccc(Cl)c1Nc1ccc2c(NC(=O)c3ccc(C4CCN(C)CC4)cc3)n[nH]c2c1 [Compound 13, N-(6-((2-choro-6-methylphenyl)amino)-1H-indazol-3-yl)-4-(1-methylpiperidin-4-yl)benzamide]",0.207 µM
12,"CN1CCC(c2ccc(C(=O)Nc3n[nH]c4cc(Nc5c(F)ccc6c5OCO6)ccc34)cc2)CC1 [Compound 15, N-(6-((5-fluorobenzo[d][1,3]dioxol-4-yl)amino)-1H-indazol-3-yl)-4-(1-methylpiperidin-4-yl)benzamide]",0.019 µM
13,"CN1CCC(c2ccc(C(=O)Nc3n[nH]c4cc(Nc5ccc(F)cc5F)ccc34)cc2)CC1 [Compound 16, N-(6-((2,4-difluorophenyl)amino)-1H-indazol-3-yl)-4-(1-methylpiperidin-4-yl)benzamide]",0.097 µM
14,"Cc1ccc(Nc2ccc3c(NC(=O)c4ccc(C5CCN(C)CC5)cc4)n[nH]c3c2)cc1 [Compound 18, 4-(1-methylpiperidin-4-yl)-N-(6-(p-tolyamino)-1H-indazol-3-yl)benzamide]",0.105 µM
15,"CN1CCC(c2ccc(C(=O)Nc3n[nH]c4cc(Nc5cccc(F)c5)ccc34)cc2)CC1 [Compound 19, N-(6-((3-fluorophenyl)amino)-1H-indazol-3-yl)-4-(1-methylpiperidin-4-yl)benzamide]",0.258 µM
16,"Cc1cccc(F)c1Nc1ccc2c(NC(=O)c3ccc(C4CCN(C)CC4)cc3)n[nH]c2n1 [Compound 21, N-(6-((2-fluoro-6-methylphenyl)amino)-1H-pyrazolo[3,4-b]pyridin-3-yl)-4-(1-methylpiperidin-4-yl)benzamide]",0.442 µM
17,"CN1CCC(c2ccc(C(=O)Nc3n[nH]c4nc(Nc5ccc(F)cc5F)ccc34)cc2)CC1 [Compound 22, N-(6-((2,4-difluorophenyl)amino)-1H-pyrazolo[3,4-b]pyridin-3-yl)-4-(1-methylpiperidin-4-yl)benzamide]",0.283 µM
18,"CC(C)N1CCC(c2ccc(C(=O)Nc3n[nH]c4nc(Nc5ccccc5F)ccc34)cc2)CC1 [Compound 24, N-(6-((2-fluorophenyl)amino)-1H-pyrazolo[3,4-b]pyridin-3-yl)-4-(1-isopropylpiperidin-4-yl)benzamide]",0.209 µM
19,"CN1CCC(c2ccc(C(=O)Nc3n[nH]c4nc(Nc5ccccc5Cl)ccc34)cc2)CC1 [Compound 26, N-(6-((2-chlorophenyl)amino)-1H-pyrazolo[3,4-b]pyridin-3-yl)-4-(1-methylpiperidin-4-yl)benzamide]",0.26 µM
20,"COc1ccccc1Nc1ccc2c(NC(=O)c3ccc(C4CCN(C)CC4)cc3)n[nH]c2n1 [Compound 27, N-(6-((2-methoxyphenyl)amino)-1H-pyrazolo[3,4-b]pyridin-3-yl)-4-(1-methylpiperidin-4-yl)benzamide]",0.538 µM
21,"COc1ccc(Nc2ccc3c(NC(=O)c4ccc(C5CCN(C)CC5)cc4)n[nH]c3n2)cc1 [Compound 31, N-(6-((4-methoxyphenyl)amino)-1H-pyrazolo[3,4-b]pyridin-3-yl)-4-(1-methylpiperidin-4-yl)benzamide]",0.589 µM
22,"CN1CCN(c2ccc(C(=O)Nc3n[nH]c4cc(Nc5ccccc5F)ccc34)cc2)CC1 [Compound 34, N-(6-((2-fluorophenyl)amino)-1H-indazol-3-yl)-4-(4-methylpiperazin-1-yl)benzamide]",0.147 µM
23,"CN1CCC(Oc2ccc(C(=O)Nc3n[nH]c4cc(Nc5ccccc5F)ccc34)cc2)CC1 [Compound 35, N-(6((2-fluorophenyl)amino)-1H-indazol-3-yl)-4((1-methylpiperidin-4-yl)oxy)benzamide]",0.145 µM
24,"O=C(Nc1n[nH]c2cc(Nc3ccccc3F)ccc12)c1ccc(N2CCOCC2)cc1 [Compound 36, N-(6((2-fluorophenyl)amino)-1H-indazol-3-yl)-4-morpholinobenzamide]",0.37 µM
25,"CN1CCCC(Oc2ccc(C(=O)Nc3n[nH]c4cc(Nc5ccccc5F)ccc34)cc2)C1 (stereo not drawn) [Compound 38, N-(6((2-fluorophenyl)amino)-1H-indazol-3-yl)-4((1-methylpiperidin-3-yl)oxy)benzamide]",0.283 µM
26,"CN1CCC(c2ccc(C(=O)Nc3n[nH]c4cc(Nc5ccccc5F)ccc34)cc2OCC2COC2)CC1 [Compound 42, N-(6-((2-fluorophenyl)amino)-1H-indazol-3-yl)-4-(1-methylpiperidin-4-yl)-3-(oxetan-3-ylmethoxy)benzamide]",0.204 µM
27,"CN1CCC(c2ccc(C(=O)Nc3n[nH]c4nc(Nc5c(F)ccc6c5OCO6)ccc34)cc2)CC1 [Compound 49, N-(6((5-fluorobenzo[d][1,3]dioxol-4-yl)amino)-1H-pyrazolo[3,4-b]pyridin-3-yl)-4-(1-methylpiperidin-4-yl)benzamide]",0.831 µM
28,"CN1CCC(c2ccc(C(=O)Nc3n[nH]c4cc(Nc5ccccc5F)ccc34)c(NC3CCOCC3)c2)CC1 [Compound 53, N-(6-((2-fluorophenyl)amino)-1H-indazol-3-yl)-4-(1-methylpiperidin-4-yl)-2-((tetrahydro-2H-pyran-4-yl)amino)benzamide]",0.201 µM
